The values that follow come from patent US20240199647A1, “ANTI-VIRAL COMPOUNDS” (Aligos Therapeutics, Inc., priority 2022, published 2024).

As usually defined, the IC50 is the concentration needed to halve the response being measured. In general, EC50 refers to the concentration at which the effect is half-maximal.

The target of series [1] is SARS-Cov-2 3CLpro (Severe acute respiratory syndrome coronavirus 2, UniProt P0DTD1). Description: biochemical. The following applies: Table A, class symbols, read-out: SARS-Cov-2 (IC50).
Series [2] relates to human beta-coronavirus OC43. Description: OC43 Coronavirus Assay in HeLa cells (antiviral, cytopathic effect, cell-titer-glo). The series is classed as cell-based. The settings on record: Betacoronavirus 1, OC43, HeLa. In general terms: Protection from cytopathic effect is a common read-out in antiviral testing.
For series [3], the system named is SARS-CoV-2 B.1.1.7 lineage. Description: microbe, parasite or virus in culture. It is filed as cell-based. The following applies: Severe acute respiratory syndrome coronavirus 2, Table C, SARS-CoV-2 B.1.1.7 in A549-dual_ACE2_TMPRSS2 cells, read-out: A549-dual_ACE2_TMPRSS2 (EC50).
Series [4] can be described thus: in vitro. The following applies: human.
Series [5] is described as follows: Cytotoxicity in HeLa cells without addition of OC43 virus (in parallel). The settings on record: human, HeLa cells, without OC43 virus.
Where [6] appears, read: Table B, OC43 coronavirus in HeLa cells, class symbols, read-out: EC50.
Setting [7] is: Table B, OC43 coronavirus in HeLa cells, cells given as a bound, read-out: EC50.

Where two headings read alike, the source gives them in different places.

`CN1C(=O)[C@]2(C[C@@H](C#N)N(C(=O)[C@H](CC3CC3)N(C)C(=O)[C@H](CC3CC3)NC(=O)C(F)(F)F)C2)Oc2cc(F)cc(F)c21` [Compound 93]: in series [1], the IC50 is under 20 nM. The EC50 in series [2] (setting [6]) and in series [3] (class symbols) was under 100 nM in each case. The same compound had a CC50 in series [4] of over 1000 nM. The compound further gave a CC50 at 6 days in series [5] of over 10000 nM.

As for `Cc1cc2n(n1)[C@@]1(C[C@@H](C#N)N(C(=O)[C@H](CC(C)C)N(C)C(=O)[C@H](C)NC(=O)C(F)(F)F)C1)C(=O)N2` [Example 44, (S)—N—((S)-1-((3R,5'S)-5′-cyano-6-methyl-2-oxo-1,2-dihydrospiro[imidazo[1,2-b]pyrazole-3,3′-pyrrolidin]-1′-yl)-4-methyl-1-oxopentan-2-yl)-N-methyl-2-(2,2,2-trifluoroacetamido)propanamide], the IC50 in series [1] was 20 to 200 nM. The EC50 was 100 to 1000 nM in series [2] (setting [6]) and over 1000 nM in series [3] (cells given as a bound). The same compound yielded a CC50 in series [4] of over 1000 nM. This compound also returned a CC50 at 6 days in series [5] of over 10000 nM.

For the compound `C[C@H](NC(=O)C(F)(F)F)C(=O)N(C)[C@@H](CC1(C)CC1)C(=O)N1C[C@@]2(C[C@H]1C#N)Oc1cccnc1NC2=O` [Compound 183], in series [1], the IC50 is under 20 nM. For the same compound, the figures for the EC50 in series [2] (setting [6]) and in series [3] (class symbols) were under 100 nM and 100 to 1000 nM, respectively. The same compound registered a CC50 in series [4] of over 1000 nM. The CC50 at 6 days in series [5] is over 10000 nM.

`C[C@H](NC(=O)C(F)(F)F)C(=O)N(C)[C@@H](CC(C)(C)C)C(=O)N1C[C@@]2(C[C@H]1C#N)Oc1cccnc1NC2=O` [Compound 166]: in series [1], the IC50 is under 20 nM. Moreover, the EC50 in series [2] (setting [6]) is under 100 nM; in series [3] (class symbols), 100 to 1000 nM. This compound had a CC50 in series [4] of over 1000 nM. The compound further came in with a CC50 at 6 days in series [5] of over 10000 nM.

Take `C[C@H](NC(=O)C(F)(F)F)C(=O)N(C)[C@@H](CC1CC1)C(=O)N1C[C@]2(C[C@H]1C#N)C(=O)NCC2Oc1ccccc1` (stereo partly drawn) [Compound 104]: in series [1], the IC50 lay within 20 to 200 nM. Further, the values for the EC50 in series [2] (setting [6]) and in series [3] (class symbols) were under 100 nM and 100 to 1000 nM, respectively. The same compound displayed a CC50 in series [4] of over 1000 nM. The same compound gave a CC50 at 6 days in series [5] of over 10000 nM.

As to `CN(C(=O)[C@H](CC1CC1)NC(=O)C(F)(F)F)[C@@H](CC1CC1)C(=O)N1C[C@@]2(C[C@H]1C#N)Oc1cc(F)cc(F)c1CNC2=O` [Compound 207], the IC50 in series [1] fell in the range of 20 to 200 nM. Also, the EC50 in series [2] (setting [6]) and in series [3] (class symbols) was under 100 nM in each case. Moreover, the CC50 in series [4] was over 1000 nM. In series [5], this compound had a CC50 at 6 days of over 10000 nM.

Take `Cc1nnn(C(CC2CC2)C(=O)N(C)[C@@H](CC2CC2)C(=O)N2C[C@@]3(C[C@H]2C#N)Oc2cc(F)cc(F)c2NC3=O)c1C` (relative stereo) [Compound 117, (S*)—N—((S)-1-((2R,5'S)-5′-cyano-5,7-difluoro-3-oxo-3,4-dihydrospiro[benzo[b][1,4]oxazine-2,3′-pyrrolidin]-1′-yl)-3-cyclopropyl-1-oxopropan-2-yl)-3-cyclopropyl-2-(4,5-dimethyl-1H-1,2,3-triazol-1-yl)-N-methylpropanamide]: the IC50 in series [1] is 200 to 2000 nM. Moreover, the EC50 was over 10000 nM in series [2] (setting [7]) and over 1000 nM in series [3] (cells given as a bound). For the same compound, the CC50 in series [4] is over 1000 nM. In addition, the CC50 at 6 days in series [5] is over 10000 nM.

Consider `CC(C)C[C@@H](C(=O)N1C[C@]2(C[C@H]1C#N)C(=O)NCc1nccn12)N(C)C(=O)[C@H](C)NC(=O)C(F)(F)F` [Example 46, (S)—N—((S)-1-((5R,5'S)-5′-cyano-6-oxo-7,8-dihydro-6H-spiro[imidazo[1,2-a]pyrazine-5,3′-pyrrolidin]-1′-yl)-4-methyl-1-oxopentan-2-yl)-N-methyl-2-(2,2,2-trifluoroacetamido)propanamide], for which the IC50 in series [1] lay within 20 to 200 nM. Further, the concentration giving a half-maximal response (EC50) in series [2] (setting [7]) was over 10000 nM; in series [3] (cells given as a bound), over 1000 nM. In series [4], the CC50 was over 1000 nM. Moreover, the CC50 at 6 days in series [5] is over 10000 nM.

Regarding `CN(C(=O)[C@H](CC1CC1)NC(=O)C(F)(F)F)[C@@H](CC1CC1)C(=O)N1C[C@]2(C[C@H]1C#N)C(=O)Nc1ccccc1S2(=O)=O` [Compound 82], the IC50 in series [1] was 20 to 200 nM. Further, the EC50 in series [2] (setting [6]) was 100 to 1000 nM; in series [3] (cells given as a bound), over 1000 nM. The compound also had a CC50 in series [4] of over 1000 nM. For the same compound, in series [5], the CC50 at 6 days is over 10000 nM.

For `CN(C(=O)[C@@H](CC1CC1)NC(=O)C(F)(F)F)[C@@H](CC1CC1)C(=O)N1C[C@@]2(C[C@H]1C#N)Oc1cccnc1NC2=O` [Compound 172], the IC50 in series [1] was under 20 nM. Further, the EC50 in series [2] (setting [6]) and in series [3] (class symbols) was 100 to 1000 nM each time. In addition, the CC50 in series [4] was over 1000 nM. This compound showed a CC50 at 6 days in series [5] of over 10000 nM.

For the compound `CN(C(=O)[C@H](CC1CC1)NC(=O)C1(F)CC1)[C@@H](CC1CC1)C(=O)N1C[C@@]2(C[C@H]1C#N)Oc1ncccc1NC2=O` [Compound 185], the concentration for half-maximal inhibition (IC50) in series [1] is under 20 nM. Further, the values for the EC50 in series [2] (setting [6]) and in series [3] (class symbols) were under 100 nM and 100 to 1000 nM, respectively. Also, the CC50 in series [4] is over 1000 nM. Moreover, in series [5], the CC50 at 6 days was over 10000 nM.

Regarding `CN(C(=O)[C@H]1CCN(C(=O)C(F)(F)F)C1)[C@@H](CC1CC1)C(=O)N1C[C@@]2(C[C@H]1C#N)Oc1cc(F)cc(F)c1NC2=O` [Compound 129], the IC50 in series [1] is 200 to 2000 nM. The EC50 in series [2] was over 10000 nM; in series [3] (class symbols), 100 to 1000 nM. In series [4], this compound yielded a CC50 of over 1000 nM. The compound also displayed a CC50 at 6 days in series [5] of over 10000 nM.

Consider `CC(C)C[C@@H](C(=O)N1C[C@@]2(C[C@H]1C#N)Oc1cc(F)cc(F)c1NC2=O)N(C)C(=O)[C@H](C)NC(=O)C1(F)CC1` [Compound 71], for which the IC50 in series [1] was under 20 nM. In addition, the EC50 in series [2] (setting [6]) and in series [3] (class symbols) was 100 to 1000 nM throughout. This compound had a CC50 in series [4] of over 1000 nM. In addition, the CC50 at 6 days in series [5] is over 10000 nM.

On to `CN(C(=O)[C@H](COC(C)(C)C)NC(=O)C(F)(F)F)[C@@H](CC1CC1)C(=O)N1C[C@@]2(C[C@H]1C#N)Oc1cccnc1NC2=O` [Compound 190], for which the IC50 in series [1] was under 20 nM. Besides, the EC50 in series [2] (setting [6]) was under 100 nM; in series [3] (class symbols), 100 to 1000 nM. Further, the CC50 in series [4] was over 1000 nM. The same compound displayed a CC50 at 6 days in series [5] of over 10000 nM.

For `CC(C)C[C@@H](C(=O)N1C[C@@]2(C[C@H]1C#N)Oc1cc(F)cc(F)c1NC2=O)N(C)C(=O)[C@H](CC1CC1)NC(=O)C(F)(F)F` [Example 36, (S)—N—((S)-1-((2R,5'S)-5′-cyano-5,7-difluoro-3-oxo-3,4-dihydrospiro[benzo[b][1,4]oxazine-2,3′-pyrrolidin]-1′-yl)-4-methyl-1-oxopentan-2-yl)-3-cyclopropyl-N-methyl-2-(2,2,2-trifluoroacetamido)propanamide], in series [1], the IC50 is under 20 nM. Also, the EC50 in series [2] (setting [6]) was under 100 nM; in series [3] (class symbols), 100 to 1000 nM. In series [4], the CC50 is over 1000 nM. In series [5], this compound yielded a CC50 at 6 days of over 10000 nM.

`CC(C)N1CC2(CC2)C[C@H]1C(=O)N(C)[C@@H](CC1CC1)C(=O)N1C[C@@]2(C[C@H]1C#N)Oc1cc(F)cc(F)c1NC2=O` [Compound 116]: the IC50 in series [1] is under 20 nM. In addition, the EC50 in series [2] (setting [6]) and in series [3] (class symbols) was 100 to 1000 nM each time. In series [4], this compound showed a CC50 of over 1000 nM. The compound further registered a CC50 at 6 days in series [5] of over 10000 nM.

`C[C@H](NC(=O)C(F)(F)F)C(=O)N(C)[C@@H](CC1CC1)C(=O)N1C[C@@]2(C[C@H]1C#N)Oc1c(cccc1C1CC1)NC2=O` [Compound 99]: the IC50 in series [1] was under 20 nM. Besides, the values for the EC50 in series [2] (setting [6]) and in series [3] (class symbols) were 100 to 1000 nM and under 100 nM, respectively. Besides, the CC50 in series [4] is over 1000 nM. Also, the CC50 at 6 days in series [5] is over 10000 nM.

`CN(C(=O)[C@H](CC1CC1)N1CCOC1=O)[C@@H](CC1CC1)C(=O)N1C[C@@]2(C[C@H]1C#N)Oc1cc(F)cc(F)c1NC2=O` [Compound 101]: the IC50 in series [1] lay within 20 to 200 nM. The EC50 in series [2] (setting [6]) was under 100 nM; in series [3] (class symbols), 100 to 1000 nM. The CC50 in series [4] was over 1000 nM. Moreover, the CC50 at 6 days in series [5] was over 10000 nM.

For the compound `C[C@@H](OC(C)(C)C)[C@H](NC(=O)C(F)(F)F)C(=O)N(C)[C@@H](CC1CC1)C(=O)N1C[C@@]2(C[C@H]1C#N)Oc1cc(F)cc(F)c1NC2=O` [Compound 159], in series [1], the 50% inhibitory concentration (IC50) is under 20 nM. Further, the 50% effective concentration (EC50) in series [2] (setting [6]) is 100 to 1000 nM; in series [3] (class symbols), under 100 nM. This compound also came in with a CC50 in series [4] of over 1000 nM. This compound also registered a CC50 at 6 days in series [5] of over 10000 nM.

Turning to `C[C@H](NC(=O)C(F)(F)F)C(=O)N(C)[C@@H](CC(C)(C)C)C(=O)N1C[C@@]2(C[C@H]1C#N)Oc1cc(F)cc(F)c1NC2=O` [Compound 62], the IC50 in series [1] is under 20 nM. Also, the EC50 in series [2] (setting [6]) and in series [3] (class symbols) was 100 to 1000 nM each time. In addition, the CC50 in series [4] is over 1000 nM. The CC50 at 6 days in series [5] was over 10000 nM.

With `CC(C)C[C@@H](C(=O)N1C[C@]2(CCNC2=O)C[C@H]1C#N)N(C)C(=O)[C@H](C)NC(=O)C(F)(F)F` [Compound 8, (S)—N—((S)-1-((3S,5S)-3-cyano-6-oxo-2,7-diazaspiro[4.4]nonan-2-yl)-4-methyl-1-oxopentan-2-yl)-N-methyl-2-(2,2,2-trifluoroacetamido)propanamide], the IC50 in series [1] lay within 20 to 200 nM. The EC50 in series [2] (setting [6]) and in series [3] (class symbols) was 1000 to 10000 nM throughout. Moreover, in series [4], the CC50 was over 1000 nM. In series [5], this compound displayed a CC50 at 6 days of over 10000 nM.
